Literature values in patent US20120071440A1, “Pharmaceutical Composition For Enhancing Adiponectin Production And Food Useful Therefor” (priority 2009, published 2012).

Test system: adiponectin
Settings: reported in Diabetes Research and Clinical Practice 2004

In the case of `Cn1c(=O)c2c(ncn2C)n(C)c1=O` [caffeine], the adiponectin production is listed as “capable of producing adiponectin, but this effect is not large”.
